Calls of active or inactive are those of the source.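 Rule for the calls: active = plate Z score at or below -3, or inhibition of at least 30% at 20 µM; inactive = the rest.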
Assay: EGFP reporter destabilization counter-screen – F442A EGFP cells, fluorescence, counter-screen for p/CIP destabilizer project, dose response (AID 2005);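 note: cells express EGFP alone from a CMV promoter as a counter screen for p/CIP-EGFP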
Settings: F442A EGFP cells, EGFP fluorescence, 16 h, stronger effect = higher value

Row | SMILES | inhibition (EGFP decrease, at 10 µM) | inhibition (at 20 µM)
1 | CCOC(=O)N1CCN(S(=O)(=O)c2cc(OCC)ccc2OCC)CC1 | -19.2% | 5.4% (inactive)
2 | CCCc1sc(N/N=C/c2ccccn2)nc1-c1ccc(F)cc1 | 20.3% | 20.4% (inactive)
3 | O=C(O)[C@@H]1CCCN1c1ncnc2sc3c(c12)CCC3 | 0.9% | 31.1%
4 | C[C@H]1CC[C@@H]2[C@@H](C)[C@H]3[C@H](C[C@H]4[C@@H]5CC=C6C[C@@H](O[C@@H]7O[C@H](CO)[C@H](O)[C@H](O[C@@H]8O[C@H](CO)[C@@H](O)[C@H](O)[C@H]8O)[C@H]7O[C@@H]7O[C@@H](C)[C@H](O)[C@@H](O)[C@H]7O)CC[C@]6(C)[C@H]5CC[C@]34C)N2C1 | 30.3% | -3% (inactive)
5 | O=C(Nc1ccnn1C1CCN(Cc2ccccc2OC(F)F)CC1)c1cccc(F)c1 | 26.5% | 37.8%
6 | CCCC(C)C1(CC)C(=O)NC(=Nc2ccc(F)cc2)NC1=O (stereo not given) | 37.5% | 27.3% (inactive)
7 | CCOc1ccccc1N1CCN(C(=O)c2cc(-c3cc(OC)ccc3OC)nc3ccccc23)CC1 | 20.9% | 24.9% (inactive)
8 | COc1ccccc1CN1CC(C(=O)NCc2cc(F)cc(C(F)(F)F)c2)CCC1=O (stereo not given) | 4.7% | 12.5% (inactive)
9 | O=c1cc(O)c2c(=O)n(C3CCCCC3)c3ccccc3c2o1 | 2.1% | 4.6% (inactive)
10 | Cc1ccccc1-n1ncc2c1CC(C)(C)CC2NC(=O)CCN1CCCCC1=O (stereo not given) | -9.2% | 12.3% (inactive)
11 | O[C@@H](CNC[C@H](O)c1ccccc1)c1ccccc1 | 28% | -10.9% (inactive)
12 | COC(=O)c1sc(NC(=O)CSc2nnnn2-c2cccc(OC)c2)nc1C | 34.2% | 13.2% (inactive)
13 | CC(=O)CC(=O)NC(=NC1CCCCC1)Nc1nc(C)cc(C)n1 | 14.7% | 5.7% (inactive)
14 | CN(c1ccc(C(=O)Nc2ccccn2)cc1)S(=O)(=O)c1ccccc1 | 11.8% | 9% (inactive)
15 | Cc1cc(N2C(=O)C(O)=C(C(=O)c3ccco3)C2c2ccc([N+](=O)[O-])cc2)no1 (stereo not given) | 39.5% | 4.5% (inactive)
16 | CCOC(=O)c1ccc(COC(=O)c2nonc2N)cc1 | 4.5% | 21.1% (inactive)
17 | CCC(Cc1ccccc1)NC(=O)Cn1cccc1C(=O)c1ccccc1 (stereo not given) | 9.1% | 15.9% (inactive)
18 | COc1ccc(Cl)c(NC(=O)Nc2c(C)n(-c3ccccc3)c(=O)n2C)c1 | 8.4% | 26.9% (inactive)
19 | CCN(Cc1nc2ccccc2c(=O)[nH]1)Cc1nc2ccsc2c(=O)[nH]1 | 26.2% | 22.6% (inactive)
20 | COCCN(CC(=O)NC1CCCCC1)C(=O)CSc1nc2ccccc2o1 | 7.4% | 28.7% (inactive)
21 | O=CN1CCC(=O)N(Cc2ccccc2)c2ccccc21 | 33.4% | 23.1% (inactive)
22 | COc1ccccc1C(=O)NC(CCSC)C(=O)NC1CCCCCC1 (stereo not given) | 17.2% | 29.7% (inactive)
23 | CC(C(=O)NC1=NCCS1)N1C(=O)C2CC=CCC2C1=O (stereo not given) | 20.2% | 27.7% (inactive)
24 | O=c1c2ccccc2nc(-c2ccccc2)n1-c1ccncc1 | -29.4% | 24.7% (inactive)
25 | CCc1cc2c(NCCC(=O)O)nc(C)nc2s1 | 20.9% | 21% (inactive)

Row | SMILES | inhibition (EGFP decrease, at 10 µM) | inhibition (at 20 µM)
26 | C=CCc1cccc2cc(C(=O)NC)c(=O)oc12 | 12.9% | 30.8%
27 | NC(=O)c1cccn(Cc2ccc(C(F)(F)F)cc2)c1=O | 6.5% | 5.4% (inactive)
28 | CC(C)c1ccc(NC(=S)NN2C(C)CCCC2C)cc1 (stereo not given) | 8.5% | 0.8% (inactive)
29 | CC(=O)c1cccc(OCc2cc(C(=O)N3CC4C[C@@H]5CC3C[C@H](C4)C5)no2)c1 | 37.1% | 27% (inactive)
30 | COc1cccc(/C=N/n2c(C3CCCCC3)n[nH]c2=S)c1O | 1.4% | 27.7% (inactive)
31 | Cc1c(NC(=O)CSc2ncccn2)c(=O)n(-c2ccccc2)n1C | 15.5% | 17.7% (inactive)
32 | CCN(Cc1ccccc1)C(=O)C(=O)c1cn(CC(=O)N2CCCC2)c2ccccc12 | 19.4% | 28.2% (inactive)
33 | Cc1ccc(-c2nc(-c3cccnc3)no2)c(C)c1 | 18.1% | 31.1%
34 | CC(OC(=O)C1CC1)C(=O)Nc1ccc([N+](=O)[O-])cc1Cl (stereo not given) | 14.2% | 3.9% (inactive)
35 | Cc1cc(NC(=O)CSc2ccc3nnc(-c4cccs4)n3n2)no1 | 10.8% | 15.9% (inactive)
36 | O=C(c1ccccc1F)N(Cc1cccnc1)Cc1cc2cc3c(cc2[nH]c1=O)OCCO3 | 4.2% | -4.2% (inactive)
37 | COc1cccc(CNC(=O)C2CCN(c3cnccn3)CC2)c1 | -0.8% | 8.6% (inactive)
38 | CCCCOc1ccc(/C(O)=C2/C(=O)C(=O)N(CCCOC)C2c2ccncc2)cc1 (stereo not given) | 5.3% | -10.4% (inactive)
39 | COc1ccc(S(=O)(=O)N2CCOC2CNC(=O)C(=O)NCc2ccncc2)cc1 (stereo not given) | -30.4% | 8.6% (inactive)
40 | CC(C)CN(C(=O)c1cccc(F)c1)c1c(N)n(CC(C)C)c(=O)[nH]c1=O | 32.3% | 18.5% (inactive)
41 | Cc1ccc(NC(=O)N2CCCC2C(=O)NCc2ccc3c(c2)OCO3)cc1 (stereo not given) | -10.4% | -0.3% (inactive)
42 | O=C(CS(=O)CC(=O)Nc1ccccc1-c1ccccc1)Nc1ccc(F)cc1 (stereo not given) | -0.9% | 13.9% (inactive)
43 | CCC1=C(OC(=O)N(CC)CC)N2C(=O)OC(=NCC3CC3)[C@]2(Cc2ccccc2)[C@H]2C1=CC[C@H]1C(=O)N(CC(=O)OC)C(=O)[C@H]12 | 0.3% | 13.8% (inactive)
44 | CC(=O)Nc1cc2c(cc1C(=O)c1ccc(C)cc1)OCCO2 | 16% | -7.7% (inactive)
45 | COc1ccccc1CNS(=O)(=O)c1cccc(S(=O)(=O)N2CCOCC2)c1 | 3.3% | 4.8% (inactive)
46 | CCOC(=O)N1CCC(NC(=O)Cn2nc(-c3ccccc3)ccc2=O)CC1 | 1.1% | 24.5% (inactive)
47 | CCOC(=O)C(OC(=O)c1sc(=S)n(C)c1C)C(C)=O (stereo not given) | 27.1% | 35.7%
48 | CN=Cc1sc2ccccc2c1O | 26.9% | 29.7% (inactive)
49 | CC(CCc1ccccc1)NC(=O)CNC(=O)COc1ccccc1 (stereo not given) | -4.8% | 28.2% (inactive)
50 | Cc1ccc(S(=O)(=O)CCSc2nc(C)cc(C(F)(F)F)c2C#N)cc1 | -55.8% | -128% (inactive)

Row | SMILES | inhibition (EGFP decrease, at 10 µM) | inhibition (at 20 µM)
51 | Cc1cc(CN(C)C(=O)c2ccc3nc(Cc4ccccc4F)oc3c2)on1 | 21.3% | 8.5% (inactive)
52 | O=C(O)c1cccc(NC(=O)C2C3C=CC(C3)C2C(=O)O)c1 (stereo not given) | 17.4% | 18% (inactive)
53 | CC1CCCCC1NC(=O)c1cn(C)c2ccc(S(=O)(=O)N3CCCC3)cc2c1=O (stereo not given) | 12.3% | 6.4% (inactive)
54 | CC(=O)N1CCN(C(=O)CCCNC(=O)c2ccc(Cl)cc2)CC1 | 21% | -1.6% (inactive)
55 | CCCNC(=O)c1ccc2c(=O)c(O)c(-c3cccc(Br)c3)[nH]c2c1 | -14.1% | -14.4% (inactive)
56 | COc1ccc(CCNC(=O)c2ccncc2)cc1OC | -3.3% | 20.8% (inactive)
57 | O=C(CSc1nnc(-c2ccccc2F)o1)OCc1ccccc1 | 15.7% | 39%
58 | COc1ccc(CC(=O)OC(C)C(=O)c2ccc(C)cc2)cc1 (stereo not given) | 32% | 25.4% (inactive)
59 | Cn1ncnc2c(=O)n(C)c(=O)nc1-2 | 49.3% | 61.7%
60 | S=C(NNC(=S)Nc1ccccc1)Nc1ccccc1 | -6.9% | 16.7% (inactive)
61 | CS(=O)(=O)Nc1ccccc1C(=O)Nc1cc(Cl)cc(Cl)c1 | 19.6% | -18.3% (inactive)
62 | Cc1nn(CC(=O)NCCN2CCCCC2C)c(=O)c2cc(-c3ccccc3)nn12 (stereo not given) | 17.6% | 1.6% (inactive)
63 | Cc1onc(-c2ccccc2)c1C(=O)OCC(=O)Nc1cc(S(=O)(=O)N2CCOCC2)ccc1Cl | 13.9% | 19.6% (inactive)
64 | Cc1cccc2cc(CN(Cc3ccc(F)cc3)Cc3nnnn3C3CCCC3)c(=O)[nH]c12 | 13.4% | 6.5% (inactive)
65 | CC(CN1CCOCC1)OC(=O)C(C)(c1ccccc1)c1ccccc1 (stereo not given) | -14.9% | -4.6% (inactive)
66 | Cc1ccc(SCC(=O)N(C)C2CCS(=O)(=O)C2)cc1 (stereo not given) | 17.7% | 28.3% (inactive)
67 | CCN1CCN(Cc2ccc(NC(=O)c3cc(NC(=O)C4=NN(c5ccccc5)C(=O)C4)cc(OC)c3)cc2C(F)(F)F)CC1 | 37.6% | 24.2% (inactive)
68 | CC1=C(C(=O)OCc2ccccc2)C(c2ccc(C(F)(F)F)cc2)NC(=O)N1CCCCCC(=O)O (stereo not given) | -4.3% | -6% (inactive)
69 | COC(=O)c1[nH]c2c(c1C)C(=O)CC(c1cccs1)C2 (stereo not given) | 16.8% | -4.5% (inactive)
70 | COc1ccccc1NC(=O)CSc1nncn1-c1cccnc1 | 4.7% | 8% (inactive)
71 | CCCCn1c(SCC(=O)NCc2ccco2)nc2c(sc3ccccc32)c1=O | 20.5% | 13.2% (inactive)
72 | NC(=O)C1CCCCc2c1[nH]c1ccc(Cl)cc21 (stereo not given) | 16.2% | 7.6% (inactive)
73 | CCC(C(=O)NC1CCCCCC1)n1nc(C)n2c(cc3occc32)c1=O (stereo not given) | 2.6% | 5.5% (inactive)
74 | Cc1onc(-c2ccccc2Cl)c1C(=O)NCc1cccnc1 | 22.1% | 15.9% (inactive)
75 | O=S(=O)(NCC1CCCO1)c1cccc(C(F)(F)F)c1 (stereo not given) | 7.7% | 11.7% (inactive)

Source: PubChem BioAssay AID2005 (Sanford-Burnham Center for Chemical Genomics, 2009)
